Key:
HIV-2 antibodies = experiment: ELISA, single peptides identifying HIV-2 positive sera; assay type: binding, human; conditions: 5 tested
Description: A preferred convenient and classical technique for the determination of antibodies against AIDS virus using a peptide or a peptide mixture of the present invention is an enzyme-linked immunosorbent assay (ELISA). According to this test a peptide or a peptide mixture of the present invention is adsorbed onto the wells of a microtiter plate. The wells are then treated with sera to be tested. After washing, anti-human IgG labeled with peroxidase is added to the wells. The determination of the peroxidase is performed with a corresponding substrate, e.g. with o-phenylene diamine. Also in this procedure the peroxidase can be exchanged by another label, e.g. by a radioactive or fluorescence label.
The cyclic peptides of the present invention and their mixtures with one or more linear peptides were tested in accordance with the ELISA test described previously against a variety of sera, some of which were confirmed positive and others which were confirmed negative.
TABLE 4 provides the results of single peptides which were individually evaluated in identifying known HIV-2 positive sera.
Each well of the microtiter plate is saturated with 100 μl of a solution containing a peptide or mixture of peptides (5 μg/ml) and left overnight. The wells are emptied and washed twice with a washing buffer (Tris, 0.043M; NaCl, 0.5M;thimerosal, 0.01% w/v; Tween 20, 0.05% v/v; pH 7.4). The wells are then saturated with 0.35 ml of washing buffer for 1 hr. at 37° C. and washed once with the same buffer. Serum samples to be analyzed are diluted with specimen buffer (washing buffer plus casein, 0.05% w/v). The wells are rinsed with washing buffer prior to the addition of the diluted serum sample (0.1 ml). These are left to incubate for 1 hr. at room temperature. The wells are then emptied, washed twice rapidly and then once for two minutes with washing buffer. […] The wells are then emptied and washed twice rapidly with washing buffer and then five times in which the buffer was in contact with the well 2 minutes per washing.
The substrate solution (3,3', 5,5'-tetramethylbenzidine, 8 mg per ml of DMSO) is diluted with 100 volumes 0.1M citrate-acetate buffer, pH 5.6 containing 0.1% v/v of 30% H2 O2 and added to each well (0.1 ml per well). After 10 minutes the contents of each well is treated with 0.1 ml 2N H2 SO4 and the optical density read at 450 nm. All determinations are done in duplicate.

HIV-1 antibodies = conditions: cited from earlier work; for sensitivity: HIV-1 seropositive samples, literature

Row | Molecule | % Positive Sera correctly Identified (HIV-2 antibodies) | further results
1 | CC(C)[C@@H]1NC(=O)[C@H](CCC(N)=O)NC(=O)[C@H](CCCNC(=N)N)NC(=O)[C@H](Cc2ccccc2)NC(=O)[C@H](C)NC(=O)[C@@H](NC(=O)CN)CSSC[C@@H](C(=O)N[C@@H](Cc2c[nH]cn2)C(=O)N[C@H](C(=O)N[C@H](C(=O)N[C@H](C(=O)N2CCC[C@H]2C(=O)N[C@@H](Cc2c[nH]c3ccccc23)C(=O)N[C@H](C(=O)N[C@@H](CC(N)=O)C(=O)N[C@@H](CC(=O)O)C(=O)N[C@@H](CO)C(=O)O)C(C)C)C(C)C)[C@@H](C)O)[C@@H](C)O)NC1=O [Peptide 201] | 100% | 
2 | CC[C@H](C)[C@H](NC(=O)[C@H](CCC(=O)O)NC(=O)[C@@H](NC(=O)[C@@H](N)CC(C)C)C(C)C)C(=O)N[C@H](C(=O)N1CCC[C@H]1C(=O)N[C@H](C(=O)NCC(=O)N[C@@H](Cc1ccccc1)C(=O)N[C@@H](C)C(=O)N1CCC[C@H]1C(=O)N[C@H](C(=O)N[C@@H](CCCCN)C(=O)N[C@@H](CCC(=O)O)C(=O)N[C@@H](CCCCN)C(=O)N[C@@H](CCCNC(=N)N)C(=O)N[C@@H](Cc1ccc(O)cc1)C(=O)N[C@@H](CO)C(=O)N[C@@H](CO)C(=O)N[C@@H](C)C(=O)N[C@@H](Cc1c[nH]cn1)C(=O)NCC(=O)N[C@@H](CCCNC(=N)N)C(=O)O)[C@@H](C)O)[C@@H](C)CC)[C@@H](C)O [Peptide 203] | 100% | 
3 | 7-mer peptide: SGKLIC with a cysteine residue added to the N-terminus (605-611), Gnann et al. |  | sensitivity (HIV-1 antibodies): 48%
4 | SGKLICTTAVPWNAS [short synthetic peptide covering residues 606 to 620 of gp41 (HIV-1), U.S. Ser. No. 120,027] |  | sensitivity (HIV-1 antibodies): 89%; specificity (samples correctly identified) (HIV-1 antibodies; U.S. Ser. No. 120,027): 63/63
5 | CC[C@H](C)[C@H](NC(=O)[C@H](CCC(=O)O)NC(=O)[C@@H](NC(=O)[C@@H](N)CC(C)C)C(C)C)C(=O)N[C@H](C(=O)N1CCC[C@H]1C(=O)N[C@H](C(=O)NCC(=O)N[C@@H](Cc1ccccc1)C(=O)N[C@@H](C)C(=O)N1CCC[C@H]1C(=O)N[C@H](C(=O)N[C@@H](CCCCN)C(=O)N[C@@H](CCC(=O)O)C(=O)N[C@@H](CCCCN)C(=O)N[C@@H](CCCNC(=N)N)C(=O)O)[C@@H](C)O)[C@@H](C)CC)[C@@H](C)O [Peptide 204] | 100% | 
6 | CC(C)C[C@H](NC(=O)[C@H](CCCNC(=N)N)NC(=O)[C@H](C)NC(=O)[C@H](CCC(N)=O)NC(=O)[C@H](CC(=O)O)NC(=O)[C@@H](N)CCC(N)=O)C(=O)N[C@@H](CC(N)=O)C(=O)N[C@@H](CO)C(=O)N[C@@H](Cc1c[nH]c2ccccc12)C(=O)NCC(=O)N[C@H]1CSSC[C@@H](C(=O)N[C@@H](Cc2c[nH]cn2)C(=O)N[C@H](C(=O)N[C@H](C(=O)N[C@H](C(=O)N2CCC[C@H]2C(=O)N[C@@H](Cc2c[nH]c3ccccc23)C(=O)N[C@H](C(=O)N[C@@H](CC(N)=O)C(=O)N[C@@H](CC(=O)O)C(=O)N[C@@H](CO)C(N)=O)C(C)C)C(C)C)[C@@H](C)O)[C@@H](C)O)NC(=O)[C@H](C(C)C)NC(=O)[C@H](CCC(N)=O)NC(=O)[C@H](CCCNC(=N)N)NC(=O)[C@H](Cc2ccccc2)NC(=O)[C@H](C)NC1=O [Peptide 147] | 100% | 
7 | CC(=O)N[C@@H](CCC(N)=O)C(=O)N[C@@H](CC(=O)O)C(=O)N[C@@H](CCC(N)=O)C(=O)N[C@@H](C)C(=O)N[C@@H](CCCNC(=N)N)C(=O)N[C@@H](CC(C)C)C(=O)N[C@@H](CC(N)=O)C(=O)N[C@@H](CO)C(=O)N[C@@H](Cc1c[nH]c2ccccc12)C(=O)NCC(=O)N[C@H]1CSSC[C@@H](C(N)=O)NC(=O)[C@H](C(C)C)NC(=O)[C@H](CCC(N)=O)NC(=O)[C@H](CCCNC(=N)N)NC(=O)[C@H](Cc2ccccc2)NC(=O)[C@H](C)NC1=O [Peptide 200] | 100% | 
8 | SGKLIC |  | immunoreactivity with HIV-1 positive sera (HIV-1 antibodies; 22 HIV-1 positive sera tested, Gnann et al.): not immunoreactive
9 | CC[C@H](C)[C@H](NC(=O)[C@H](C)NC(=O)[C@@H](NC(=O)[C@@H](NC(=O)[C@@H](N)CCCNC(=N)N)C(C)C)[C@@H](C)O)C(=O)N[C@@H](CCC(=O)O)C(=O)N[C@@H](CCCCN)C(=O)N[C@@H](Cc1ccc(O)cc1)C(=O)N[C@@H](CC(C)C)C(=O)N[C@@H](CCC(N)=O)C(=O)N[C@@H](CC(=O)O)C(=O)N[C@@H](CCC(N)=O)C(=O)N[C@@H](C)C(=O)N[C@@H](CCCNC(=N)N)C(=O)N[C@@H](CC(C)C)C(=O)N[C@@H](CC(N)=O)C(=O)N[C@@H](CO)C(=O)N[C@@H](Cc1c[nH]c2ccccc12)C(=O)NCC(=O)N[C@H]1CSSC[C@@H](C(=O)N[C@@H](Cc2c[nH]cn2)C(=O)N[C@H](C(=O)N[C@H](C(=O)N[C@H](C(=O)N2CCC[C@H]2C(=O)N[C@@H](Cc2c[nH]c3ccccc23)C(=O)N[C@H](C(=O)N[C@@H](CC(N)=O)C(=O)N[C@@H](CC(=O)O)C(=O)N[C@@H](CO)C(=O)O)C(C)C)C(C)C)[C@@H](C)O)[C@@H](C)O)NC(=O)[C@H](C(C)C)NC(=O)[C@H](CCC(N)=O)NC(=O)[C@H](CCCNC(=N)N)NC(=O)[C@H](Cc2ccccc2)NC(=O)[C@H](C)NC1=O [Peptide 202] | 100% | 
10 | CC[C@H](C)[C@H](NC(=O)[C@H](C)NC(=O)[C@@H](NC(=O)[C@@H](NC(=O)[C@@H](N)CCCNC(=N)N)C(C)C)[C@@H](C)O)C(=O)N[C@@H](CCC(=O)O)C(=O)N[C@@H](CCCCN)C(=O)N[C@@H](Cc1ccc(O)cc1)C(=O)N[C@@H](CC(C)C)C(=O)N[C@@H](CCC(N)=O)C(=O)N[C@@H](CC(=O)O)C(=O)N[C@@H](CCC(N)=O)C(=O)N[C@@H](C)C(=O)N[C@@H](CCCNC(=N)N)C(=O)N[C@@H](CC(C)C)C(=O)N[C@@H](CC(N)=O)C(=O)N[C@@H](CO)C(=O)N[C@@H](Cc1c[nH]c2ccccc12)C(=O)NCC(=O)N[C@H]1CSSC[C@@H](C(N)=O)NC(=O)[C@H](C(C)C)NC(=O)[C@H](CCC(N)=O)NC(=O)[C@H](CCCNC(=N)N)NC(=O)[C@H](Cc2ccccc2)NC(=O)[C@H](C)NC1=O [Peptide 146] | 100% | 
